Measured values published in PMC12024912, “Druggability Studies of Benzene Sulfonamide Substituted Diarylamide (E3) as a Novel Diuretic” (Biomedicines, 2025).

Assays:
[1] = Blood stability, rabbit; type: in vitro ADME; settings: plasma, n=3
Protocol: (§1) Plasma from mice, rats, rabbits, and humans was obtained from blood after centrifugation at 3000 r/min for 10 min. Simulated gastric fluid (SGF, pH = 1, containing pepsin) and simulated intestinal fluid (SIF, pH = 6.8, containing trypsin) were configured previously in the experiments. SD rats and mice were collected, and after removing the mucus layer from the small intestine and colon, 20 times the volume of liquid bacterial culture medium was added. An intestinal microbiota suspension was obtained after anaerobic cultivation on a shaking table at 37 °C for 12 h. In the aforementioned systems, E3 was added at a final concentration of 1 μmol/L at 37 °C for different incubation times (0, 10, 20, 30, 60, 120, and 240 min). In liver metabolic stability assays, E3 was incubated with liver microsomes or liver homogenate from mice or rats for 60 min at 37 °C. The stop solution, 5 ng/mL tolbutamide (internal standard, IS) in acetonitrile, was added to stop the metabolic process. Post-centrifugation (18,000× g, 10 min, 4 °C), supernatants were subjected to liquid chromatography–tandem mass spectrometry (LC–MS/MS). Analyte-to-IS peak area ratios quantified residual percentages via Equation (2):Remaining% = (E3peak area/ISpeak area at different time)/(E3peak area/ISpeak area at 0 min) × 100%.(2)

[2] = system: mice; assay: Acute oral toxicity test in mice; type: in vivo
Protocol: (§2) The acute oral toxicity test was performed according to “Guidance on Single Dose Toxicity Study for Pharmaceuticals” (2014), “Guidance for industry: single dose acute toxicity testing for pharmaceuticals” (1996). The initial dose for preliminary trials was established at 5000 mg/kg. A total of three female and three male mice were utilized (one of each sex for preliminary experiments and two for subsequent experiments). Following a 12 h fasting period, one male and one female mouse were selected and administered E3. After 24 h of confirming survival and the absence of abnormal behavior, the remaining four animals were given the same dose. The control group was given solvent (0.5% CMC-Na). Observations of all animals on the day of dosing (d 0) and in the days following were recorded, including general conditions (signs of toxicity, onset of symptoms, recovery period), changes in body weight, and mortality. After 14 d, blood and vital organ tissues were collected, and serum biochemical indicators as well as histopathological examinations were conducted.

[3] = Acute oral toxicity test in mice; type: in vivo; settings: both sexes, mouse, in vivo, 5000 mg/kg; mice; oral; 14-day acute toxicity assay
Protocol: as §2

[4] = molecular target: T1, rat UT-A1 (Rattus norvegicus, UniProt Q62668); assay: Transwell assay of UT-A1 inhibition in UT-A1-MDCK cells; type: cell-based; settings: read-out: IC50 against UT-A1-mediated urea permeability
T1 construct: expressed in transfected cells
T1 sequence (Q62668 1-929): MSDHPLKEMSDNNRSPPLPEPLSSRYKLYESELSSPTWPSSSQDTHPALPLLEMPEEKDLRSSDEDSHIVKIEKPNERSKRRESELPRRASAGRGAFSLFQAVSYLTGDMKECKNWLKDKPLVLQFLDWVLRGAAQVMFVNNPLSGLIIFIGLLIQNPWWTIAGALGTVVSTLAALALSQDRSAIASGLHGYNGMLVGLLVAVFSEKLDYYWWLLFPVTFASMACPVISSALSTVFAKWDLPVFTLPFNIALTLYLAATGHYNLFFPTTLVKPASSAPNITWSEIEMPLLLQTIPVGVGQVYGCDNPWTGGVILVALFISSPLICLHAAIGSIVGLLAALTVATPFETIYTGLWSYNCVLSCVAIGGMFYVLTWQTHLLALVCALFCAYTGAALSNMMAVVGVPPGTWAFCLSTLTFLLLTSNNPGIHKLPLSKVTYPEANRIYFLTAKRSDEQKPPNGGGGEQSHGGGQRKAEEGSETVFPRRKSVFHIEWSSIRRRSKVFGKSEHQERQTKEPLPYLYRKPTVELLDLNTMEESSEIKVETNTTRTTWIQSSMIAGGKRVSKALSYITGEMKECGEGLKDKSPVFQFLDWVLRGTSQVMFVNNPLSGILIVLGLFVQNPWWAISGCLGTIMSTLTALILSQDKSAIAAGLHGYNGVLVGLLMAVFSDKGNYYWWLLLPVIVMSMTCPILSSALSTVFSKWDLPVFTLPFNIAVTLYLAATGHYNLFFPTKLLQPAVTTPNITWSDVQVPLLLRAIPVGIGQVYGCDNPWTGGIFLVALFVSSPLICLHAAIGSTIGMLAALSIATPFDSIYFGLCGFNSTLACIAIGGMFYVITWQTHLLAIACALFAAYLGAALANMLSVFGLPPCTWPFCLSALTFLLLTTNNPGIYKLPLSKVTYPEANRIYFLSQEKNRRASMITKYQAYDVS
Protocol: MDCK cells stably expressing rat UT-A1 or UT-B were cultured in DMEM supplemented with 10% FBS, and the mRNA levels of UT-A1 and UT-B were measured in our previous research. Urea flux was assessed according to previously established methods. MDCK cells (2 × 10^5 cells/cm^2) were grown on 12 mm collagen-coated Costar Transwell inserts (0.4 μm pore size, Corning) for 4 d at 37 °C in the presence of 5% CO2. Once the cells on the apical side formed a tight monolayer (transepithelial resistance 1 kΩ/cm^2), PBS (pH = 7.4, containing 10 μmol/L forskolin) with E3 or DMSO was added to the top (0.25 mL) and bottom (1 mL) compartments, and the cultures were incubated in the absence of urea for 30 min at 37 °C. As UT-B is located in the plasma membrane while UT-A1 resides in the cytoplasm, forskolin was used to stimulate the translocation of UT-A1 from the cytoplasm to the membrane for urea transport. Subsequently, the solution in the bottom compartment was replaced with PBS (pH 7.4, containing 10 μmol/L forskolin and E3 or DMSO) supplemented with 15 mmol/L urea. Apical fluid samples (5 μL) were collected at 0, 1, 3, 5, 10, 15, 20, 30, 40, 50, and 60 min. The samples were subjected to an assay for urea (Urea Colorimetric Assay Kit (Diacetyl Oxime Method), Elabscience, Wuhan, China) according to the kit procedure. Then, the inhibition rate was calculated as described previously.

[5] = Blood stability, mouse; type: in vitro ADME; settings: plasma, n=3
Protocol: as §1

CC(=O)c1ccc(C(=O)Nc2cccc(NS(=O)(=O)c3ccccc3)c2)o1 [Compound E3, 5-acetyl-N-(3-(phenylsulfonamido)phenyl)furan-2-carboxamide]
remaining at 1 μmol/L [1]: 35.7% | Brain organ index ([2]; female mice, 5g/kg, n=3): 1.72±0.10% | Kidney organ index ([2]; female mice, 5g/kg, n=3): 1.06±0.02% | Liver organ index ([2]; female mice, 5g/kg, n=3): 4.86±0.08% | Lung organ index ([2]; female mice, 5g/kg, n=3): 0.73±0.04% | Ovary organ index ([2]; female mice, 5g/kg, n=3): 0.11±0.02% | Spleen organ index ([2]; female mice, 5g/kg, n=3): 0.4±0.01% | Thymus organ index ([2]; female mice, 5g/kg, n=3): 0.27±0.06% | Uterus organ index ([2]; female mice, 5g/kg, n=3): 0.3±0.02% | Brain organ index ([2]; male mice, 5g/kg, n=3): 1.35±0.01% | Epididymis organ index ([2]; male mice, 5g/kg, n=3): 0.17±0.01% | Kidney organ index ([2]; male mice, 5g/kg, n=3): 1.26±0.02% | Liver organ index ([2]; male mice, 5g/kg, n=3): 5.16±0.12% | Lung organ index ([2]; male mice, 5g/kg, n=3): 0.72±0.02% | Spleen organ index ([2]; male mice, 5g/kg, n=3): 0.37±0.02% | Testis organ index ([2]; male mice, 5g/kg, n=3): 0.73±0.02% | Thymus organ index ([2]; male mice, 5g/kg, n=3): 0.25±0.01% | H&E staining of heart, kidney, liver, spleen, and brain ([2]; mouse, in vivo, po, 5000 mg/kg): no apparent abnormalities | organ indexes ([2]; mouse, in vivo, po, 5000 mg/kg): no significant difference | representative blood biochemical indicators ([2]; mouse, in vivo, po, 5000 mg/kg): not statistically altered | LD50 at 14 d [3]: > 5000 mg/kg | IC50 [4]: 0.018 µM | remaining at 1 μmol/L [5]: 45.3%
